The subject of one series is Tritikale Sorte PRAG I09. Nature of the series: Field trial of gametocidal activity, triticale. The class given is in vivo. The following applies: 1% aqueous emulsion, 12 kg/ha; for Anzahl von Körnern der Ähre bei freier Bestäubung / Anzahl von Körnern der Ähre im Isolator / Prozentsatz der Sterilität: V. and VI. period; for Prozentsatz des Ansetzens bei freier Bestäubung: control = 100. The source says: (§1) Bei Weizen und Tritikale werden Einzelisolatoren verwendet.
Pflanzen von Tritikale Sorte PRAG I09 werden in der V. und VI.
Der Verbrauch an Sterilisationsmittel beträgt 12 kg/ha.

Series [1] deals with Diploider Roggen Sorte Gibrid 1864/74. The series can be described thus: Field trial of gametocidal activity, diploid rye Gibrid 1864/74. The following applies: 1% aqueous emulsion, 10 kg/ha; for Anzahl von Körnern der Ähre bei freier Bestäubung / Anzahl von Körnern der Ähre im Isolator / Prozentsatz der Sterilität: V. period; for Prozentsatz des Ansetzens bei freier Bestäubung: control = 100.

In series [2] the test system is Diploider Roggen Sorte Chulpan. Nature of the series: Field trial of gametocidal activity, diploid rye Chulpan. The class given is in vivo. The following applies: single compounds, 1% aqueous emulsion, 10 kg/ha; for response vs control in vivo at 10000 g/ha: read-out: Prozentsatz des Ansetzens bei freier Bestäubung, Chulpan.
From the text: as §1
Pflanzen von diploidem Roggen Sorte Chulpan werden in der V. oder VI.
Der Verbrauch an Sterilisationsmitteln beträgt 10 kg/ha.

A short description of the next series: in vivo. The following applies: mouse.
In series [3] the test system is Hirse Sorte K-9693 Kormovoe 1. The series can be described thus: Field trial of gametocidal activity, millet K-9693 Kormovoe 1. The following applies: 1% aqueous emulsion, 10 kg/ha.
In series [4] the test system is Tetraploider Roggen Sorte Belta. Nature of the series: Field trial of gametocidal activity, tetraploid rye Belta. The class given is in vivo. The following applies: 1% aqueous emulsion, 10 kg/ha.
Series [5] relates to Winterweizens Sorte Mironovskaya 808. Nature of the series: Field trial of gametocidal activity (anther sterilisation), winter wheat. The class given is in vivo, Weizen. The following applies: 2% aqueous emulsion, 20 kg/ha; for response vs control in vivo at 20000 g/ha: control = 100, read-out: Prozentsatz des Ansetzens bei freier Bestäubung.
Series [6] has as its system Hirse Sorte Mironovskoe 94. Nature of the series: Field trial of gametocidal activity, millet Mironovskoe 94. The following applies: 1% aqueous emulsion, 10 kg/ha; for response vs control in vivo at 10000 g/ha: control = 100, read-out: Prozentsatz des Ansetzens bei freier Bestäubung. The class given is in vivo.
Series [7] concerns Sommerweizen Sorte Moskovskaya 35. The series can be described thus: Field trial of gametocidal activity, spring wheat. The following applies: 1% aqueous emulsion; for Anzahl von Körnern der Ähre bei freier Bestäubung / Anzahl von Körnern der Ähre im Isolator / percent sterility at 10000 g/ha: V. period; for percent sterility at 10000 g/ha: read-out: Prozentsatz der Sterilität. The class given is in vivo, Weizen.

Series [8] deals with Tetraploider Roggen Sorte Ukrainskaya tetra. The series can be described thus: Field trial of gametocidal activity, tetraploid rye Ukrainskaya tetra. The class given is in vivo. The following applies: 1% aqueous emulsion, 10 kg/ha; for Prozentsatz des Ansetzens bei freier Bestäubung: control = 100.
The subject of series [9] is Diploider Roggen Sorte Kharkovskaya 55. Nature of the series: Field trial of gametocidal activity, diploid rye Kharkovskaya 55. The following applies: 1% aqueous emulsion, 6 kg/ha.
The subject of series [10] is Diploider Roggen Sorte Gibrid 340/65. The series can be described thus: Field trial of gametocidal activity, diploid rye Gibrid 340/65. The following applies: Gibrid 340/65 (text: 312/65), 1% aqueous emulsion, 10 kg/ha.
In the next series the test system is Roggen Sorte Voskhod 2. Nature of the series: Field trial of gametocidal activity, diploid rye Voskhod 2. In kind it is in vivo. The following applies: 1% aqueous emulsion, 8 kg/ha.
Another series concerns Sonnenblume Linie VK 119. The series can be described thus: Field trial of pollen sterilisation, sunflower line VK 119. The following applies: 0,2% aqueous emulsion, 1,2 kg/ha.
In series [11] the test system is Sonnenblume Sorte Peredovik. The series can be described thus: Field trial of pollen sterilisation, sunflower Peredovik. In kind it is in vivo. The following applies: 0,2% aqueous emulsion, 1,2 kg/ke (so in the source). The source says:
Pflanzen der Sonnenblume Sorte Peredovik werden in der V. oder VI.
Der Verbrauch an Sterilisationsmittel beträgt 1,2 kg/ke.

The mark [12] stands for this setting: control = 100, read-out: Prozentsatz des Ansetzens bei freier Bestäubung.
Setting [13] is: V. or VI. period of organogenesis.
[14] abbreviates: V. or VI. period, read-out: Prozentsatz der Sterilität.

Broadly, the LD50 is the dose at which mortality reaches 50%. Regarding `OCCOc1ccc(F)cc1` [Beispiel 2], the “Anzahl von Körnern der Ähre bei freier Bestäubung” value in the series on Tritikale Sorte PRAG I09 was 62,3; in series [1], 42,0; in series [2] (Chulpan, V. or VI. period), 48,2; in series [5] (setting [13]), 27,4. For the same compound, the “Anzahl von Körnern der Ähre im Isolator” value is recorded as 0,0 in the series on Tritikale Sorte PRAG I09; 0,0 in series [1]; 0,0 in series [2] (Chulpan, V. or VI. period); 0,0 in series [4] (V. or VI. period); 0,0 in [5] (setting [13]). The “Prozentsatz des Ansetzens bei freier Bestäubung” value in the series on Tritikale Sorte PRAG I09 was 90,3%; in series [1], 87,9%; in series [3] (control = 100), 87,7%. Further, the “Prozentsatz der Sterilität” value in series [1] and in series [3] (V. or VI. period) was 100% in each case. Further, the percent sterility at 10000 g/ha in [2] (Chulpan, V. or VI. period, read-out: Prozentsatz der Sterilität) came to 100%. Also, the response vs control in vivo at 10000 g/ha came out at 85% in [2] (control = 100), 92.8% in [4] (setting [12]) and 82% in [6]. In “in vivo” (LD50, weisse Mäuse), the median lethal dose (LD50) worked out at 350 mg/kg. The “Anzahl von Körnern der Rispe bei freier Bestäubung” value is reported as 128,7 in series [3] (V. or VI. period) and 311,4 in series [6] (V. or VI. period). In addition, the “Anzahl von Körnern der Rispe im Isolator” value in series [3] (V. or VI. period) and in series [6] (V. or VI. period) was 0,0 throughout. Besides, in series [5], the response vs control in vivo at 20000 g/ha was determined as 67.7%. The percent pollen sterility at 10000 g/ha in series [6] (setting [14]) was found to be 100%.
As for `OCC(O)COc1ccc(F)cc1` (stereo not drawn) [Beispiel 4], in series [1], the “Anzahl von Körnern der Ähre bei freier Bestäubung” value was 42,8, the “Anzahl von Körnern der Ähre im Isolator” value is 0,0, the “Prozentsatz der Sterilität” value came out at 100% and the “Prozentsatz des Ansetzens bei freier Bestäubung” value is recorded as 88,2%. The compound also registered an LD50 in “in vivo” (LD50, weisse Mäuse) of 400 to 600 mg/kg. Also, in [7] (10 kg/ha), the “Anzahl von Körnern der Ähre bei freier Bestäubung” value is 25,9, the “Anzahl von Körnern der Ähre im Isolator” value was 0,4 and the percent sterility at 10000 g/ha was 98.6%. Further, in [7] (setting [12]), the response vs control in vivo came to 94.2%. Besides, in series [5] (setting [13]), the “Anzahl von Körnern der Ähre bei freier Bestäubung” value was 30,6 and the “Anzahl von Körnern der Ähre im Isolator” value is on record as 0,0. For the same compound, in series [5], the response vs control in vivo at 20000 g/ha was found to be 75.4%.
Regarding `O=C(O)c1cc(Br)ccc1O` [Beispiel 18, Äthanolaminsalz der 5-Bromsalizylsäure], the “Prozentsatz der Sterilität” value in series [8] (V. or VI. period) is reported as 99,8%. For the same compound, the “Prozentsatz des Ansetzens bei freier Bestäubung” value in [8] is reported as 94,7%. Also, in series [7] (10 kg/ha), the “Anzahl von Körnern der Ähre bei freier Bestäubung” value is 27,9, the “Anzahl von Körnern der Ähre im Isolator” value was 1,8 and the percent sterility at 10000 g/ha is 93.4%. The response vs control in vivo at 10000 g/ha in series [7] (10 kg/ha, control = 100, read-out: Prozentsatz des Ansetzens bei freier Bestäubung) turned out to be 102%. Moreover, in series [6] (V. or VI. period), the “Anzahl von Körnern der Rispe bei freier Bestäubung” value is 320,7 and the “Anzahl von Körnern der Rispe im Isolator” value is listed as 0,0. Further, the percent pollen sterility at 10000 g/ha in series [6] (setting [14]) amounted to 100%. In series [6], the response vs control in vivo at 10000 g/ha is 84.5%.
Turning to `O=C(O)c1ccccc1` [Beispiel 31, Äthanolaminsalz der Benzoesäure], in series [8] (V. or VI. period), the “Anzahl von Körnern der Ähre bei freier Bestäubung” value was 44,0, the “Anzahl von Körnern der Ähre im Isolator” value is on record as 0,8 and the “Prozentsatz der Sterilität” value is on record as 98,2%. Further, the “Prozentsatz des Ansetzens bei freier Bestäubung” value in series [8] is recorded as 99,5%. In addition, the LD50 in “in vivo” amounted to 4100 mg/kg. Moreover, in [9] (V. and VI. periods), the “Anzahl von Körnern der Ähre bei freier Bestäubung” value was 43,7, the “Anzahl von Körnern der Ähre im Isolator” value is 0,9 and the “Prozentsatz der Sterilität” value is 97,9%. For the same compound, in series [9] (control = 100), the “Prozentsatz des Ansetzens bei freier Bestäubung” value is reported as 96,9%.
Turning to `CCC(CO)(CO)CO` [Beispiel 39, Etriol], in the series with Tritikale Sorte PRAG I09, the “Anzahl von Körnern der Ähre bei freier Bestäubung” value was 68,2, the “Anzahl von Körnern der Ähre im Isolator” value is reported as 0,7, the “Prozentsatz der Sterilität” value is 99,0% and the “Prozentsatz des Ansetzens bei freier Bestäubung” value is given as 98,8%. In addition, in series [10] (V. and VI. periods), the “Anzahl von Körnern der Ähre bei freier Bestäubung” value is on record as 53,2, the “Anzahl von Körnern der Ähre im Isolator” value was 1,6 and the “Prozentsatz der Sterilität” value is 96,7%. The “Prozentsatz des Ansetzens bei freier Bestäubung” value in [10] (control = 100) is 98,5%. For the same compound, in series [6] (V. or VI. period), the “Anzahl von Körnern der Rispe bei freier Bestäubung” value is reported as 355,1 and the “Anzahl von Körnern der Rispe im Isolator” value was 0,0. The percent pollen sterility at 10000 g/ha in series [6] (setting [14]) is 100%. For the same compound, the response vs control in vivo at 10000 g/ha in [6] stood at 93.6%.
For the compound `NCCO.O=CO` [Beispiel 48, Monoäthanolaminsalz der Ameisensäure], in the series with Tritikale Sorte PRAG I09, the “Prozentsatz der Sterilität” value is given as 99,9% and the “Prozentsatz des Ansetzens bei freier Bestäubung” value was 92,9%. In addition, in [2] (Chulpan, V. or VI. period), the “Anzahl von Körnern der Ähre bei freier Bestäubung” value is recorded as 55,2, the “Anzahl von Körnern der Ähre im Isolator” value is 1,2 and the “Prozentsatz der Sterilität” value is on record as 97,7%. Besides, the “Prozentsatz des Ansetzens bei freier Bestäubung” value in [2] (Chulpan, control = 100) was 97,4%. In [6] (V. or VI. period), the “Anzahl von Körnern der Rispe bei freier Bestäubung” value is 352,2, the “Anzahl von Körnern der Rispe im Isolator” value is recorded as 0,0 and the “Prozentsatz der Sterilität” value is 100%. Further, the “Prozentsatz des Ansetzens bei freier Bestäubung” value in series [6] (control = 100) is 92,8%.
Turning to `ClCC1CO1` (stereo not drawn) [Beispiel II, 3-Chlor-1,2-epoxypropan], the “Anzahl von Körnern der Ähre bei freier Bestäubung” value in the series on Roggen Sorte Voskhod 2 (V. or VI. period) was 51,7; in series [2] (Chulpan, V. or VI. period), 48,9. Besides, the “Anzahl von Körnern der Ähre im Isolator” value in the series with Roggen Sorte Voskhod 2 (V. or VI. period) was 0,6; in [2] (Chulpan, V. or VI. period), 0,0. The “Prozentsatz der Sterilität” value with Roggen Sorte Voskhod 2 (V. or VI. period) is listed as 98,8%. For the same compound, in the series on Roggen Sorte Voskhod 2 (control = 100), the “Prozentsatz des Ansetzens bei freier Bestäubung” value is on record as 94,7%. In addition, the “Ansetzen von Achänen bei freier Bestäubung in %” value in the series with Sonnenblume Linie VK 119 was 85,0%; in series [11] (V. or VI. period), 82,3%. The “Ansetzen von Achänen im Isolator bei der Bestäubung mit dem Pollengemisch in %” value (in the series with Sonnenblume Linie VK 119; in [11] (V. or VI. period)) was 0,0% throughout. The Pollensterilität in % (in the series with Sonnenblume Linie VK 119; in series [11]) was 100% in each case. Further, the pest or weed control at 10000 g/ha in [2] (read-out: Prozentsatz der Sterilität, Chulpan, V. or VI. period) stood at 100%; in series [6] (setting [14]), 100%. For the same compound, the response vs control in vivo at 10000 g/ha in series [2] (control = 100) is 86.2%; in series [6], 82.2%. Moreover, in “in vivo”, the LD50 was found to be 238 mg/kg. Also, the pest or weed control at 20000 g/ha in series [5] (V. or VI. period of organogenesis, read-out: Prozentsatz der Sterilität) was 99.8%. Also, the response vs control in vivo at 20000 g/ha in [5] came to 77.5%. Further, the “Anzahl von Körnern der Rispe bei freier Bestäubung” value in [6] (V. or VI. period) was 312,3. The “Anzahl von Körnern der Rispe im Isolator” value in [6] (V. or VI. period) is reported as 0,0.

The values are drawn from EP0359821A1, “METHOD OF STERILIZING PLANT ANTHERS” (priority 1988, dated 1989).
